Converted amounts (≈) assume the structure as drawn. Structures can show the parent of a compound that is named as a salt.
Legend:
Staph. aureus 674 = assay: minimum inhibitory concentration, in vitro screen (Table I, strain 3); format: cell-based; details: Staphylococcus aureus
Source text: (§1) The compounds of this invention are useful as broad spectrum antibacterial agents against both Gram-positive and Gram-negative organisms. […] Data for 7-[syn-2-methoxyimino-2-(2-amino-4-thiazolyl)acetamido]cephalosporanic acid (cefatoxime) are also included for comparison.

Proteus morgani 179 = assay: minimum inhibitory concentration, in vitro screen (Table I, strain 13); format: cell-based
Source text: as §1

Staph. aureus 671 = assay: minimum inhibitory concentration, in vitro screen (Table I, strain 2); format: cell-based; details: Staphylococcus aureus; Staph. aureus 671, lactamase producer
Source text: as §1

[1] = system: Enterobacter aerogenes ATCC 13048; assay: minimum inhibitory concentration, in vitro screen (Table I, strain 14); format: cell-based; details: Klebsiella aerogenes, ATCC13048
Source text: as §1

P. mirabilis PM-444 = assay: minimum inhibitory concentration, in vitro screen (Table I, strain 10); format: cell-based; details: Proteus mirabilis, PM444
Source text: as §1

S. aureus HH 127 = assay: standard in vivo antibacterial test in mice, ED50 (Table 2); details: Staphylococcus aureus
Source text: (§2) Table 2 sets forth ED50 's for Compound A, cefamandole and cefatoxime.

E. coli 12140 = assay: as above; details: Escherichia coli
Source text: as §2

Staph. aureus HH 127 = assay: minimum inhibitory concentration, in vitro screen (Table I, strain 1); format: cell-based; details: Staphylococcus aureus, HH127; Staph. aureus HH 127, lactamase producer
Source text: as §1

[2] = pharmacokinetics in mouse (Table 3); format: in vivo; details: for half-life: in vivo; for half-life / concentration at 2 h / Cmax / dose excreted: mouse, 20 mg/kg; for concentration at 2 h / Cmax: serum; for concentration at 2 h: read-out: Serum Level at 2 hrs.; for Cmax: read-out: Peak Serum Level; for dose excreted: urine, read-out: Urinary Recovery
Pseudo. aeruginosa 647 = assay: minimum inhibitory concentration, in vitro screen (Table I, strain 16); format: cell-based; details: Pseudomonas aeruginosa
Source text: as §1

E. coli SK&F 12140 = assay: minimum inhibitory concentration, in vitro screen (Table I, strain 5); format: cell-based; details: Escherichia coli
Source text: as §1

in vitro = in vitro ADME; details: human serum proteins; read-out: Binding to Human Serum Proteins (converted)
[3] = system: Serratia marcescens ATCC 13880; assay: minimum inhibitory concentration, in vitro screen (Table I, strain 12); format: cell-based; details: ATCC13880
Source text: as §1

E. coli 804 = assay: minimum inhibitory concentration, in vitro screen (Table I, strain 6); format: cell-based; details: Escherichia coli; E. coli 804, lactamase producer
Source text: as §1

[4] = system: Kleb. pneumoniae SK&F 4200; assay: minimum inhibitory concentration, in vitro screen (Table I, strain 7); format: cell-based; details: Klebsiella pneumoniae
Source text: as §1

[5] = system: Kleb. pneumoniae SK&F 1200; assay: minimum inhibitory concentration, in vitro screen (Table I, strain 8); format: cell-based; details: Klebsiella pneumoniae
Source text: as §1

Kleb. pneumoniae 982 = assay: minimum inhibitory concentration, in vitro screen (Table I, strain 9); format: cell-based; details: Klebsiella pneumoniae; Kleb. pneumoniae 982, lactamase producer
Source text: as §1

Strep. faecalis HH 34358 = assay: minimum inhibitory concentration, in vitro screen (Table I, strain 4); format: cell-based; details: Enterococcus faecalis, HH34358
Source text: as §1

Pseudo. aeruginosa HH 63 = assay: minimum inhibitory concentration, in vitro screen (Table I, strain 11); format: cell-based; details: Pseudomonas aeruginosa, HH63
Source text: as §1

Enterobacter cloacae 921 = assay: minimum inhibitory concentration, in vitro screen (Table I, strain 15); format: cell-based
Source text: as §1

[6] = system: Gram-negative bacteria including those which are β-lactamase producers; assay: standard in vitro screens (general statement); format: cell-based; details: especially against Gram-negative bacteria including β-lactamase producers
Source text: as §1

bacterial infections = assay: standard in vivo tests in mice (general statement)
Source text: as §2

Row | SMILES | MIC (Staph. aureus 674) [µg/mL] | MIC (Proteus morgani 179) [µg/mL] | MIC (Staph. aureus 671) [µg/mL] | MIC [1] [µg/mL] | MIC (P. mirabilis PM-444) [µg/mL] | MIC (Staph. aureus HH 127) [µg/mL] | half-life [2] [min] | concentration at 2 h [2] [ng/mL] | Cmax [2] [ng/mL] | dose excreted [2] [%] | MIC (Pseudo. aeruginosa 647) [µg/mL] | MIC (E. coli SK&F 12140) [µg/mL] | fraction unbound (in vitro) | MIC [3] [µg/mL] | MIC (E. coli 804) [µg/mL] | MIC [4] [µg/mL] | MIC [5] [µg/mL] | MIC (Kleb. pneumoniae 982) [µg/mL] | MIC (Strep. faecalis HH 34358) [µg/mL] | MIC (Pseudo. aeruginosa HH 63) [µg/mL] | further results
1 | Cn1nnnc1SCC1=C(C(=O)O)N2C(=O)[C@@H](NC(=O)[C@H](O)c3ccccc3)[C@H]2SC1 [Cefamandole] | ≤ 0.1 | 1.6 (≈ 3.46 µM) | 6.3 (≈ 13.6 µM) | 1.6 (≈ 3.46 µM) | 0.4 (≈ 0.865 µM) | 1.6 (≈ 3.46 µM) | 12 | 1000 | 34000 | 45 | > 100 | 0.8 (≈ 1.73 µM) | 0.39 | 12.5 (≈ 27 µM) | > 100 | 1.6 (≈ 3.46 µM) | 0.4 (≈ 0.865 µM) | > 100 | 25 (≈ 54.1 µM) | > 100 | ED50 (S. aureus HH 127; HH127, * representative value): 2.2 mg/kg; ED50 (E. coli 12140; * representative value): 0.9 mg/kg; MIC (Enterobacter cloacae 921): 3.1 µg/mL (≈ 6.7 µM)
2 | CO/N=C(\C(=O)N[C@@H]1C(=O)N2C(C(=O)O)=C(COC(C)=O)CS[C@H]12)c1csc(N)n1 [Cefatoxime, 7-[syn-2-methoxyimino-2-(2-amino-4-thiazolyl)acetamido]cephalosporanic acid] | 0.8 (≈ 1.76 µM) | ≤ 0.1 | 0.4 (≈ 0.878 µM) | ≤ 0.1 | ≤ 0.1 | 1.6 (≈ 3.51 µM) | 27 | < 1000 | 25000 | 13 | 3.1 (≈ 6.81 µM) | ≤ 0.1 | 0.61 | ≤ 0.1 | 0.2 (≈ 0.439 µM) | ≤ 0.1 | ≤ 0.1 | 0.2 (≈ 0.439 µM) | > 100 | 6.3 (≈ 13.8 µM) | ED50 (S. aureus HH 127; HH127): 10.5 mg/kg; ED50 (E. coli 12140): < 0.2 mg/kg; MIC (Enterobacter cloacae 921): ≤ 0.1 µg/mL
3 | CO/N=C(\C(=O)N[C@@H]1C(=O)N2C(C(=O)O)=C(CSc3nnnn3CCNS(=O)(=O)O)CS[C@H]12)c1csc(N)n1 [Compound A, 7-[syn-2-methoxyimino-2-(2-amino-4-thiazolyl)acetamido]-3-[1-(2-sulfaminoethyl)tetrazo-5-ylthiomethyl]-3-cephem-4-carboxylic acid disodium salt] | 6.3 | ≤ 0.1 | 3.1 | 0.2 | ≤ 0.1 | 6.3 | 114 | 52000 | 78000 | 24 | 6.3 | ≤ 0.1 | 0.3 | ≤ 0.1 | 0.4 | ≤ 0.1 | ≤ 0.1 | 1.6 | > 100 | 12.5 | ED50 (S. aureus HH 127; HH127): 21 mg/kg; ED50 (E. coli 12140): 0.4 mg/kg; peak serum levels, serum levels at two hours and half-life ([2]; compared to cefatoxime and cefamandole): better for Compound A compared to cefatoxime and cefamandole; pharmacokinetic properties ([2]; general statement): unexpected improved pharmacokinetic properties; activity in standard in vitro screens [6]: high activity; antibacterial activity in standard in vivo tests (bacterial infections): high antibacterial activity; MIC (Enterobacter cloacae 921): 0.2 µg/mL
